Experimental data taken from ChEMBL document CHEMBL1128773, “Synthesis and pharmacological profile of FCE 28654: A water-soluble and injectable ACAT inhibitor” (Bioorg Med Chem Lett, 1995).

How the values were obtained:
Rattus norvegicus [1] = test: Effect of single oral administration of 15 mg/kg of compound on triglycerides of hypercholesterolemic rats; assay type: functional, organism-based; parameters: dose 15 mg/kg
Rattus norvegicus [2] = test: Effect of single oral administration of 15 mg/kg of compound on free cholesterol of hypercholesterolemic rats; assay type: functional, organism-based; parameters: dose 15 mg/kg
[3] = biological target: T1, Acyl-CoA:cholesterol acyltransferase (Oryctolagus cuniculus, UniProt Q95214); test: Inhibitory activity against acyl-CoA: cholesterol acyltransferase (ACAT) in microsomes from cholesterol-fed rabbit intestinal mucosa
T1 sequence (Q95214 whole entry): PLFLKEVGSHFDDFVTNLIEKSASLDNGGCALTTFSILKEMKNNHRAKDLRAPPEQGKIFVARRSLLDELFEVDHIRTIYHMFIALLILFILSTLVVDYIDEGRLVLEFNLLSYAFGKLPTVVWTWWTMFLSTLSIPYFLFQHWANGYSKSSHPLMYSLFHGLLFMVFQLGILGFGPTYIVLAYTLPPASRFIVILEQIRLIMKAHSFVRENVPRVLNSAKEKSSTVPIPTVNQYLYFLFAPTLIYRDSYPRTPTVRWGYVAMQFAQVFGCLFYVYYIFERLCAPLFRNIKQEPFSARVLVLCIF

Rattus norvegicus [4] = test: Effect of single oral administration of 15 mg/kg of compound on phospholipids of hypercholesterolemic rats; assay type: functional, organism-based; parameters: dose 15 mg/kg
[5] = biological target: T1, Acyl-CoA:cholesterol acyltransferase; test: Inhibitory activity against acyl-CoA: cholesterol acyltransferase (ACAT) in microsomes from cholesterol-fed rabbit thoracic aorta
Rattus norvegicus [6] = test: Effect of single oral administration of 15 mg/kg of compound on cholesterol esters of hypercholesterolemic rats; assay type: functional, organism-based; parameters: dose 15 mg/kg
[7] = biological target: T2, Sterol O-acyltransferase 1 (Rattus norvegicus) (UniProt O70536); test: (§1) Inhibition of microsomal acyl-CoA: cholesterol acyltransferase in the presence of plasma from rats administered orally with 100 mg/kg of the compound; pmoles [14C]-Cholesteryl oleate formed / mg protein / min incubation; assay type: organism-based; parameters: dose 100 mg/kg
T2 sequence (whole entry): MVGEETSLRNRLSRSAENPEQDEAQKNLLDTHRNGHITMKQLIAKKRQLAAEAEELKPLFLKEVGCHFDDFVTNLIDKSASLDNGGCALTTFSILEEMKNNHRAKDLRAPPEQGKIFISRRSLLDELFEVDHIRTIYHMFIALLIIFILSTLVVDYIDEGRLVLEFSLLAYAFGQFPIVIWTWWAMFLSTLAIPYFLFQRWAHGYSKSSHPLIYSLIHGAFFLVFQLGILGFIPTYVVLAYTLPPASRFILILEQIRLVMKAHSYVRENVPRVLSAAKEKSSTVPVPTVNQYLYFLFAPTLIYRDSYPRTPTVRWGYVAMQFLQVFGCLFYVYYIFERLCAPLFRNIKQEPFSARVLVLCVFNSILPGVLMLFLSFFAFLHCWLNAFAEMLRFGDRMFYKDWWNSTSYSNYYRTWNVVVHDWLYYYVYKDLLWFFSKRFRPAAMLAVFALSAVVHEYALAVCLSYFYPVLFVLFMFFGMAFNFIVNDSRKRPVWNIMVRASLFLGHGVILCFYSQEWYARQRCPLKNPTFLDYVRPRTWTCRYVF

[8] = Ratio of effect of single oral administration of 15 mg/kg of compound on liver free cholesterol/cholesterol esters of hypercholesterolemic rats; assay type: functional
Rattus norvegicus [9] = test: Effect of single oral administration of 2 mg/kg of compound on triglycerides of hypercholesterolemic rats; assay type: functional, organism-based; parameters: dose 2 mg/kg
Mus musculus [10] = test: Effect of single oral administration of 10 mg/kg of compound on phospholipids of hypercholesterolemic mice; assay type: functional, organism-based; parameters: dose 10 mg/kg
Rattus norvegicus [11] = test: Effect of single oral administration of 2 mg/kg of compound on cholesterol esters of hypercholesterolemic rats; assay type: functional, organism-based; parameters: dose 2 mg/kg
Mus musculus [12] = test: Effect of single oral administration of 10 mg/kg of compound on free cholesterol of hypercholesterolemic mice; assay type: functional, organism-based; parameters: dose 10 mg/kg
[13] = Ratio of effect of single iv administration of compound at dose 10 mg/kg on liver free cholesterol/cholesterol esters of hypercholesterolemic mice; assay type: functional
Mus musculus [14] = test: Effect of single oral administration of 10 mg/kg of compound on cholesterol esters of hypercholesterolemic mice; assay type: functional, organism-based; parameters: dose 10 mg/kg
Rattus norvegicus [15] = test: Effect of single oral administration of 2 mg/kg of compound on free cholesterol of hypercholesterolemic rats; assay type: functional, organism-based; parameters: dose 2 mg/kg
[16] = biological target: T2, Sterol O-acyltransferase 1 (Rattus norvegicus); test: as §1; assay type: functional, organism-based; parameters: dose 100 mg/kg
Mus musculus [17] = test: Effect of single oral administration of 10 mg/kg of compound on triglycerides of hypercholesterolemic mice; assay type: functional, organism-based; parameters: dose 10 mg/kg
[18] = Ratio of effect of single iv administration of compound at dose 2 mg/kg on liver free cholesterol/cholesterol esters of hypercholesterolemic rats; assay type: functional
Rattus norvegicus [19] = test: Effect of single oral administration of 2 mg/kg of compound on phospholipids of hypercholesterolemic rats; assay type: functional, organism-based; parameters: dose 2 mg/kg

Compound | Plasma lipids (Rattus norvegicus [1]) [mg/dL] | Plasma lipids (Rattus norvegicus [2]) [mg/dL] | IC50 [3] [nM] | Plasma lipids (Rattus norvegicus [4]) [mg/dL] | IC50 [5] [nM] | Plasma lipids (Rattus norvegicus [6]) [mg/dL] | Activity [7] | Ratio [8] | Plasma lipids (Rattus norvegicus [9]) [mg/dL] | Plasma lipids (Mus musculus [10]) [mg/dL] | Plasma lipids (Rattus norvegicus [11]) [mg/dL] | Plasma lipids (Mus musculus [12]) [mg/dL] | Ratio [13] | Plasma lipids (Mus musculus [14]) [mg/dL] | Plasma lipids (Rattus norvegicus [15]) [mg/dL] | Activity [16] | Plasma lipids (Mus musculus [17]) [mg/dL] | Ratio [18] | Plasma lipids (Rattus norvegicus [19]) [mg/dL]
CC(C)c1cccc(C(C)C)c1NC(=O)NCC1(c2ccccc2)O[C@H](C)[C@@H](C)O1 | 76 | 18 | 27 | 77 | 24.2 | 57 | 286 | – | – | – | – | – | – | – | – | – | – | – | –
CC(C)c1cccc(C(C)C)c1NC(=O)NCC1(c2ccc(O)cc2)O[C@H](C)[C@@H](C)O1 | 126 | 33 | – | 96 | – | 75 | – | – | – | – | – | – | – | – | – | – | – | – | –
CC(C)c1cccc(C(C)C)c1NC(=O)NCC1(c2ccc(OP(=O)(O)O)cc2)O[C@H](C)[C@@H](C)O1 | 98 | 28 | 1080 | 84 | 2550 | 73 | – | 0.38 | 126 | 142 | 134 | 26 | 0.316 | 79 | 39 | 148 | 71 | 0.188 | 138
